According to US10195156B2, “Compounds and compositions for intracellular delivery of agents” (ModernaTX, Inc., priority 2015, dated 2019):
Read-outs that look alike come from different tables or passages of the source.

Columns and labels:
[1] = Particle size and polydispersity index of nanoparticle compositions (Zetasizer Nano ZS); assay type: physicochemical
Procedure, shortened: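 Zetasizer Nano ZS; samples in 1×PBS; read-out: particle size plus polydispersity index.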

[2] = Encapsulation efficiency of RNA (QUANT-IT RIBOGREEN RNA assay); assay type: physicochemical
Procedure, shortened: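 RiboGreen fluorescence (ex ~480, em ~520 nm) measured after 15 min at 37 °C on samples at ~5 μg/mL in TE, pH 7.5, ± 2% Triton X-100 solution. After blank subtraction, free RNA is given as intact-sample signal divided by disrupted-sample signal.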

[3] = pKa of nanoparticle compositions; assay type: physicochemical
[4] = Concentration of RNA in nanoparticle composition (ultraviolet-visible spectroscopy); assay type: physicochemical; conditions: Table 5; hEPO mRNA; 40:20:38.5:1.5 Lipid:DOPE:Chol:PEG-DMG
Procedure: Ultraviolet-visible spectroscopy can be used to determine the concentration of a therapeutic and/or prophylactic agent (e.g., RNA) in nanoparticle compositions. 100 μL of the diluted formulation in 1×PBS is added to 900 μL of a 4:1 (v/v) mixture of methanol and chloroform. After mixing, the absorbance spectrum of the solution is recorded, for example, between 230 nm and 330 nm on a DU 800 spectrophotometer (Beckman Coulter, Beckman Coulter, Inc., Brea, Calif.). The concentration of therapeutic and/or prophylactic agent in the nanoparticle composition can be calculated based on the extinction coefficient of the therapeutic and/or prophylactic agent used in the composition and on the difference between the absorbance at a wavelength of, for example, 260 nm and the baseline value at a wavelength of, for example, 330 nm.

[5] = test system: luciferase (Luc) mRNA expression; experiment: Expression of Luc induced by sample formulations, whole-body bioluminescence after intravenous administration; assay type: in vivo; conditions: for Total Flux 3 hours / Total Flux 6 hours / Total Flux 24 hours: Table 2, mice, i.v., 0.5 mg/kg
Procedure, shortened: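 Read-out is whole-body bioluminescence at 3, 6 and 24 h after a single intravenous dose of 0.5 mg/kg Luc mRNA in nanoparticle formulations. Groups of n=6 mice; PBS and standard MC3 formulation as references.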

[6] = test system: modified luciferase expression; experiment: Expression of Luc in different organs (liver, lung, spleen, femur) 6 hours after intravenous administration; assay type: in vivo; conditions: i.v., 0.5 mpk
Procedure: The efficacy of the nanoparticle compositions presented in Tables 1, 1a, 17-1, 19-1, 20-1 and 21-1 was further evaluated by measuring the expression of modified luciferase in the liver, lung, spleen, and femur upon administration of a given composition. Formulations were administered intravenously to mice (n=3) at a dosage of 0.5 mpk and bioluminescence measured after 6 hours. The standard MC3 formulation and a PBS control were also tested.

[7] = test system: IL-6; experiment: Cytokine production induced by sample formulations: IL-6; assay type: in vivo; conditions: Table 4; mice, i.v., 0.5 mpk, 6 hours; in pg/mL (unit assumed)
Procedure, shortened: (§1)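 Cytokine levels were quantified at 6 hours in mice given the nanoparticle compositions i.v. at 0.5 mpk. MC3 standard formulation and PBS served as comparators.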

[8] = test system: IP-10; experiment: Cytokine production induced by sample formulations: IP-10; assay type: in vivo; conditions: Table 4; mice, i.v., 0.5 mpk, 6 hours; in pg/mL (unit assumed)
Procedure, shortened: as §1

[9] = test system: hEPO mRNA expression; experiment: Expression of hEPO in rats after intravenous administration; assay type: in vivo; conditions: for hEPO (pg/mL) 3 hours / hEPO (pg/mL) 6 hours / hEPO (pg/mL) 24 hours: Table 6, 0.2 mg/kg or 0.5 mg/kg; for Lipid/MC3 hEPO S.D. (rats): hEPO expression relative to MC3, S.D. rats, intravenous
Procedure: PBS (phosphate buffered saline) is used as control.
Formulations were prepared according to Table 5 and included mRNA encoding hEPO.
[…] After the 48 hour time point, livers and spleens were harvested and frozen.

[10] = Lipid levels in liver and spleen 48 hours after administration; assay type: in vivo, rats; conditions: 48 hours after administration; for concentration at 48 h: Sprague-Dawley, rat, intravenous
Procedure: Formulations were administered intravenously to rats (n=3 or 6) at a dosage of 0.2 mg/kg or 0.5 mg/kg (mpk) and hEPO levels measured at 3, 6, and 24 hour time points. After the 48 hour time point, livers and spleens were harvested and frozen.
The amount of lipid in the liver and spleen 48 hours after administration of a nanoparticle composition was also measured. […] In contrast, approximately 60% of doses including MC3 or Compound 22 remained in the liver after 48 hours. Less than 3% of the dose remained in the spleen for each composition tested.

[11] = Table 1, rows without footnote mark
[12] = Table 1, rows without footnote mark (lipid:DOPE:cholesterol:PEG-DMG 40:20:38.5:1.5, Luc mRNA; MC3 standard formulation)
[13] = Table 5, hEPO mRNA, 40:20:38.5:1.5 Lipid:DOPE:Chol:PEG-DMG
[14] = liver, read-out: Lipid in liver
[15] = spleen, read-out: Lipid in spleen
[16] = Table 1, # formulated with hEPO mRNA

SMILES | PDI [1, 11] | Size (nm) [1, 12] [nm] | PDI [1, 13] | Size (nm) [1, 13] [nm] | EE (%) [2, 11] [%] | EE (%) [2, 13] [%] | pKa [3, 13] | Conc. [4] [µg/mL] | concentration at 48 h [10, 14] [ng/g] | concentration at 48 h [10, 15] [ng/g] | % remaining dose in liver ([10]; liver) [%] | % remaining dose in spleen ([10]; spleen) [%] | PDI [1, 16] | Size (nm) [1, 16] [nm] | EE (%) [2, 16] [%] | pKa [3, 16] | hEPO (pg/mL) 3 hours ([9]; rats, i.v.) [pg/mL] | hEPO (pg/mL) 6 hours ([9]; rats, i.v.) [pg/mL] | hEPO (pg/mL) 24 hours ([9]; rats, i.v.) [pg/mL] | Lipid/MC3 hEPO S.D. (rats) [9] | further results
CCCCCCCCCCCCN(CCCCCCCCCCCC)CCN(CCCCCCCCCCCC)CCN1CCN(CCN(CCCCCC(=O)OCCCCC)CCCCCC(=O)OCCCCC)CC1 [Compound 14, Dipentyl 6,6′-((2-(4-(2-((2-(didodecylamino)ethyl)(dodecyl)amino)ethyl)piperazin-1-yl)ethyl)azanediyl)dihexanoate] | 0.008 | 88.7 | 0.14 | 76.8 | 96.6 | 98.91 | 6.308 | 603.76 | 3990 | 1620 | 5.54 | 0.15 | – | – | – | – | 280973 | 158520 | 58805 | 0.12 | pKa [3, 11]: 6.31; Total Flux 3 hours [5]: 9.86E+08; Total Flux 6 hours [5]: 1.56E+09; Total Flux 24 hours [5]: 1.02E+08; Luc expression in mice compared with MC3 (in words) ([5]; Table 7a): significantly lower; Total Flux Liver ([6]; Table 3, mice): 2.62E+08; Total Flux Lung ([6]; Table 3, mice): 3.56E+06; Total Flux Spleen ([6]; Table 3, mice): 1.46E+07; IL-6 [7]: 17; IP-10 [8]: 209
CCCCCCCCCCCCN(CCCCCCCCCCCC)CCN(CCCCCCCCCCCC)CCN1CCN(CCN(CCCCCCCCCCCC)CCCCCCCCCCCC(=O)OC)CC1 [Compound 15, Methyl 12-((2-(4-(2-((2-(didodecylamino)ethyl)(dodecyl)amino)ethyl)piperazin-1-yl)ethyl)(dodecyl)amino)dodecanoate] | – | – | 0.12 | 100.3 | – | 90.15 | 6.323 | 713.00 | 3070 | 971 | 4.22 | 0.089 | 0.120 | 100.3 | 90.2 | 6.32 | 103773 | 125320 | 67965 | 0.095 | –

Second part, led by results:

PDI [1, 11] | Size (nm) [1, 12] [nm] | PDI [1, 13] | Size (nm) [1, 13] [nm] | EE (%) [2, 11] [%] | EE (%) [2, 13] [%] | pKa [3, 13] | Conc. [4] [µg/mL] | concentration at 48 h [10, 14] [ng/g] | concentration at 48 h [10, 15] [ng/g] | % remaining dose in liver ([10]; liver) [%] | % remaining dose in spleen ([10]; spleen) [%] | PDI [1, 16] | Size (nm) [1, 16] [nm] | EE (%) [2, 16] [%] | pKa [3, 16] | SMILES | hEPO (pg/mL) 3 hours ([9]; rats, i.v.) [pg/mL] | hEPO (pg/mL) 6 hours ([9]; rats, i.v.) [pg/mL] | hEPO (pg/mL) 24 hours ([9]; rats, i.v.) [pg/mL] | Lipid/MC3 hEPO S.D. (rats) [9] | further results
– | – | 0.14 | 77.4 | – | 98.22 | 6.282 | 665.11 | 597 | 293 | 0.79 | 0.026 | 0.140 | 77.4 | 98.2 | 6.28 | CCCCCCCCCCCCN(CCCCCCCCCCCC)CCN(CCCCCCCCCCCC)CCN1CCN(CCN(CCCCCCCCCCCC(=O)OC)CCCCCCCCCCCC(=O)OC)CC1 [Compound 16, Dimethyl 12,12′-((2-(4-(2-((2-(didodecylamino)ethyl)(dodecyl)amino)ethyl)piperazin-1-yl)ethyl)azanediyl)didodecanoate] | 35387 | 41720 | 17184 | 0.031 | hEPO expression in rats, comparison (in words) ([9]; rats, i.v., 0.2 or 0.5 mg/kg, Tables 6, 7a): lowest hEPO expression at each time point
0.150 | 106.4 | 0.14 | 114.5 | 84.2 | 94.39 | – | 1264.28 | – | – | – | – | – | – | – | – | CCCCCCCCCCCCCCN(CCCCCCCCCCCCCC)CCN1CCN(CCN(CCCCCCCCC)CCN(CCCCCCCCC)CCCCCCCCC)CC1 [Compound 20, N^1-(2-(4-(2-(Ditetradecylamino)ethyl)piperazin-1-yl)ethyl)-N^1,N^2,N^2-trinonylethane-1,2-diamine] | – | 227420 | – | – | pKa [3, 11]: 6.12; Total Flux 3 hours [5]: 1.00E+11; Total Flux 6 hours [5]: 1.11E+11; Total Flux 24 hours [5]: 4.60E+09; Total Flux Femur ([6]; Table 3, mice, femur): 8.91E+06; Total Flux Liver ([6]; Table 3, mice): 1.42E+10; Total Flux Lung ([6]; Table 3, mice): 1.46E+08; Total Flux Spleen ([6]; Table 3, mice): 6.11E+07; total flux in organs, rank or organ comparison (in words) ([6]; mice, each organ or overall): highest total flux; IL-6 [7]: 127; IP-10 [8]: 2080
– | – | 0.13 | 75.4 | – | 98.29 | 6.153 | 564.97 | 36800 | 3890 | 58.7 | 0.41 | 0.130 | 75.4 | 98.3 | 6.15 | CCCCCCCCCCCCN(CCCCCCCCCCCC)CCN(CCCCCCCCCCCC)CCN1CCN(CCN(CCCCCCCC)CCCCCCCC)CC1 [Compound 22, N^1-(2-(4-(2-(Dioctylamino)ethyl)piperazin-1-yl)ethyl)-N^1,N^2,N^2-tridodecylethane-1,2-diamine] | 181627 | 267680 | 75571 | 0.20 | dose remaining in the liver after 48 hours ([10]; liver): approximately 60%
